Columns and labels:
PSA mRNA = experiment: PSA expression in 22RV1 cells; format: cell-based, human; details: RNAiMax, 48 hrs
Protocol: (§1) Cells were plated at 1,000 cells per well. […] After an incubation period of 48 hrs, RNA levels of full length AR, the V7 variant, PSA and TMPRSS2 were measured.
(§2) After an incubation period of 48 hrs, RNA levels of full length AR, the V7 variant, PSA and TMPRSS2 were measured.
(§3) Cells were plated at 2,000 cells per well and cultured in CSS media for 16 hours. […] After 4 hrs, 1 nM DHT was added. […] After an incubation period of 48 hrs, RNA levels of AR, AR V7 variant, PSA and TMPRSS2 were measured.

AR mRNA = AR mRNA levels in LMR20 cells (with/without DHT or R1881); format: cell-based, human; details: with or without DHT/R1881
Protocol: LMR20 cells were plated at 1,500 cells per well in phenol red-free medium with CSS.

TMPRSS2 mRNA [1] = experiment: TMPRSS2 expression in 22RV1 cells; format: cell-based, human; details: RNAiMax, 48 hrs
Protocol: as §1, §2, §3

AR V7 variant mRNA = experiment: AR V7 variant RNA in 22RV1 cells; format: cell-based, human; details: RNAiMax, 48 hrs
22RV1 cells = experiment: 22RV1 cell proliferation, ASO in combination with MDV3100 (Example 22); format: cell-based, human; details: for Proliferation (% untreated control) in 22RV1 without MDV-3100: RNAiMAX, 3 days
Protocol: 22RV1 cells were plated at 2,000 cells per well in 5% CSS medium for 48 hours. […] ISIS 549148 was included as a negative control. […] After a treatment period of 3 days, the proliferative capacity of the cancer cells was measured with CellTiter 96® AQueous One Solution Cell Proliferation kit (Promega), following the manufacturer's instructions. Results are presented in Tables 58-62 as percent inhibition of proliferation, relative to non-treated cells.

[2] = cynomolgus monkey, in vivo, sc, 40 mg/kg
Protocol: Prior to the study, the monkeys were kept in quarantine for a 30-day period, during which the animals were observed daily for general health. The monkeys were 2-4 years old and weighed between 2 and 4 kg. Thirteen groups of four randomly assigned male cynomolgus monkeys each were injected subcutaneously with ISIS oligonucleotide or PBS. PBS solution or ISIS oligonucleotides, at a dose of 40 mg/kg, were administered with a loading regimen consisting of four doses on the first week of the study (days 1, 3, 5, and 7), followed by a maintenance regimen consisting of once weekly administration starting on Day 14 (weeks 2 to 6). Subcutaneous injections were performed in clock-wise rotations at 4 sites on the back; one site per dose. The injection sites were delineated by tattoo, while sedated using ketamine, and were separated by a minimum of 3 cm.
To evaluate the effect of ISIS oligonucleotides on the overall health of the animals, body and organ weights were measured.

TMPRSS2 mRNA [3] = experiment: TMPRSS2 expression in C4-2B cells (Example 30); format: cell-based, human; details: 48 hrs
Protocol: Cells were plated at 1,000 cells per well. […] ISIS 549148 was included as a negative control. […] After an incubation period of 48 hrs, RNA levels of AR, PSA and TMPRSS2 were measured.
Cells were plated at 2,000 cells per well and cultured in CSS media with 1 nM DHT. […] ISIS 549148 was included as a negative control. […] After an incubation period of 48 hrs, RNA levels of AR, PSA and TMPRSS2 were measured. In the absence of DHT, AR expression in C4-2 cells was 188%, PSA expression was 43% and TMPRSS2 expression was 27% compared to the untreated control.

[4] = cynomolgus monkey, in vivo, sc, 40 mg/kg; remark: listed apart in the source
full length AR mRNA = experiment: Full-length AR RNA in 22RV1 cells (complete, CSS+DHT medium); format: cell-based, human; details: RNAiMax, 48 hrs
Protocol: as §1, §2, §3

TTGATTTAATGGTTGC [ISIS 560131] (MOE and (S)-cEt gapmer chemistry, further chemistry not given here) [targets intron 1]
Percent inhibition of PSA expression (PSA mRNA; CSS + DHT medium, 1.34 nM): 3% | Percent inhibition of PSA expression (PSA mRNA; CSS + DHT medium, 4.0 nM): 50% | Percent inhibition of PSA expression (PSA mRNA; CSS + DHT medium, 13.4 nM): 66% | Percent inhibition of PSA expression (PSA mRNA; complete medium, 1.34 nM): 10% | Percent inhibition of PSA expression (PSA mRNA; complete medium, 4.0 nM): 20% | Percent inhibition of PSA expression (PSA mRNA; complete medium, 13.4 nM): 27% | Percent inhibition of PSA expression (PSA mRNA; complete medium, 40 nM): 36% | AR mRNA levels in LMR20 cells (AR mRNA): reduced AR mRNA levels in LMR20 cells, treated with or without either AR agonist, in a dose dependent manner relative to the baseline | Percent inhibition of TMPRSS2 expression (TMPRSS2 mRNA [1]; CSS + DHT medium, 1.34 nM): 39% | Percent inhibition of TMPRSS2 expression (TMPRSS2 mRNA [1]; CSS + DHT medium, 4.0 nM): 50% | Percent inhibition of TMPRSS2 expression (TMPRSS2 mRNA [1]; CSS + DHT medium, 13.4 nM): 59% | Percent inhibition of TMPRSS2 expression (TMPRSS2 mRNA [1]; complete medium, 1.34 nM): 7% | Percent inhibition of TMPRSS2 expression (TMPRSS2 mRNA [1]; complete medium, 4.0 nM): 3% | Percent inhibition of TMPRSS2 expression (TMPRSS2 mRNA [1]; complete medium, 13.4 nM): 19% | Percent inhibition of TMPRSS2 expression (TMPRSS2 mRNA [1]; complete medium, 40 nM): 32% | Percent inhibition of AR V7 variant (AR V7 variant mRNA; CSS + DHT medium, 1.34 nM): 63% | Percent inhibition of AR V7 variant (AR V7 variant mRNA; CSS + DHT medium, 4.0 nM): 83% | Percent inhibition of AR V7 variant (AR V7 variant mRNA; CSS + DHT medium, 13.4 nM): 93% | Percent inhibition of AR V7 variant (AR V7 variant mRNA; complete medium, 1.34 nM): 12% | Percent inhibition of AR V7 variant (AR V7 variant mRNA; complete medium, 4.0 nM): 29% | Percent inhibition of AR V7 variant (AR V7 variant mRNA; complete medium, 13.4 nM): 57% | Percent inhibition of AR V7 variant (AR V7 variant mRNA; complete medium, 40 nM): 81% | synergy with MDV3100 (22RV1 cells; 22RV1 cells): synergistic with MDV3100 | cell proliferation inhibited, combination (22RV1 cells; 22RV1 cells, 1.34 nM ASO in combination with 1.0 μM MDV3100): 23% | inhibited cell proliferation, ASO alone (22RV1 cells; 22RV1 cells, ASO alone at 1.34 nM): 3% | Proliferation (% untreated control) in 22RV1 cells with 0.04 μM MDV-3100 (22RV1 cells; ASO dose 0.4 nM + 0.04 μM MDV-3100): 96 % untreated control | Proliferation (% untreated control) in 22RV1 cells with 0.2 μM MDV-3100 (22RV1 cells; ASO dose 0.4 nM + 0.2 μM MDV-3100): 95 % untreated control | Proliferation (% untreated control) in 22RV1 cells with 1.0 μM MDV-3100 (22RV1 cells; ASO dose 0.4 nM + 1.0 μM MDV-3100): 96 % untreated control | Proliferation (% untreated control) in 22RV1 cells with 5.0 μM MDV-3100 (22RV1 cells; ASO dose 0.4 nM + 5.0 μM MDV-3100): 91 % untreated control | Proliferation (% untreated control) in 22RV1 without MDV-3100 (22RV1 cells; ASO dose 0.4 nM): 103 % untreated control | Proliferation (% untreated control) in 22RV1 cells with 0.04 μM MDV-3100 (22RV1 cells; ASO dose 1.34 nM + 0.04 μM MDV-3100): 80 % untreated control | Proliferation (% untreated control) in 22RV1 cells with 0.2 μM MDV-3100 (22RV1 cells; ASO dose 1.34 nM + 0.2 μM MDV-3100): 90 % untreated control | Proliferation (% untreated control) in 22RV1 cells with 1.0 μM MDV-3100 (22RV1 cells; ASO dose 1.34 nM + 1.0 μM MDV-3100): 77 % untreated control | Proliferation (% untreated control) in 22RV1 cells with 5.0 μM MDV-3100 (22RV1 cells; ASO dose 1.34 nM + 5.0 μM MDV-3100): 76 % untreated control | Proliferation (% untreated control) in 22RV1 without MDV-3100 (22RV1 cells; ASO dose 1.34 nM): 97 % untreated control | Proliferation (% untreated control) in 22RV1 cells with 0.04 μM MDV-3100 (22RV1 cells; ASO dose 4.0 nM + 0.04 μM MDV-3100): 65 % untreated control | Proliferation (% untreated control) in 22RV1 cells with 0.2 μM MDV-3100 (22RV1 cells; ASO dose 4.0 nM + 0.2 μM MDV-3100): 76 % untreated control | Proliferation (% untreated control) in 22RV1 cells with 1.0 μM MDV-3100 (22RV1 cells; ASO dose 4.0 nM + 1.0 μM MDV-3100): 63 % untreated control | Proliferation (% untreated control) in 22RV1 cells with 5.0 μM MDV-3100 (22RV1 cells; ASO dose 4.0 nM + 5.0 μM MDV-3100): 63 % untreated control | Proliferation (% untreated control) in 22RV1 without MDV-3100 (22RV1 cells; ASO dose 4.0 nM): 77 % untreated control | Proliferation (% untreated control) in 22RV1 cells with 0.04 μM MDV-3100 (22RV1 cells; ASO dose 13.4 nM + 0.04 μM MDV-3100): 39 % untreated control | Proliferation (% untreated control) in 22RV1 cells with 0.2 μM MDV-3100 (22RV1 cells; ASO dose 13.4 nM + 0.2 μM MDV-3100): 51 % untreated control | Proliferation (% untreated control) in 22RV1 cells with 1.0 μM MDV-3100 (22RV1 cells; ASO dose 13.4 nM + 1.0 μM MDV-3100): 40 % untreated control | Proliferation (% untreated control) in 22RV1 cells with 5.0 μM MDV-3100 (22RV1 cells; ASO dose 13.4 nM + 5.0 μM MDV-3100): 41 % untreated control | Proliferation (% untreated control) in 22RV1 without MDV-3100 (22RV1 cells; ASO dose 13.4 nM): 57 % untreated control | Body Wt [2]: 2.4 kg | Heart weight [2]: 9.8 g | Kidney weight [2]: 12 g | Liver weight [2]: 58 g | Mesenteric lymph nodes weight [2]: 2.0 g | Spleen weight [2]: 2.5 g | Percent inhibition of TMPRSS2 expression (TMPRSS2 mRNA [3]; CSS + DHT medium, 0.04 μM): 0% | Percent inhibition of TMPRSS2 expression (TMPRSS2 mRNA [3]; CSS + DHT medium, 0.2 μM): 34% | Percent inhibition of TMPRSS2 expression (TMPRSS2 mRNA [3]; CSS + DHT medium, 1 μM): 60% | Percent inhibition of TMPRSS2 expression (TMPRSS2 mRNA [3]; CSS + DHT medium, 5.0 μM): 76% | Percent inhibition of TMPRSS2 expression (TMPRSS2 mRNA [3]; complete medium, 0.04 μM): 46% | Percent inhibition of TMPRSS2 expression (TMPRSS2 mRNA [3]; complete medium, 0.2 μM): 71% | Percent inhibition of TMPRSS2 expression (TMPRSS2 mRNA [3]; complete medium, 1 μM): 72% | Percent inhibition of TMPRSS2 expression (TMPRSS2 mRNA [3]; complete medium, 5.0 μM): 75% | ALT [4]: 68 IU/L | AST [4]: 87 IU/L | Albumin [4]: 4.0 g/dL | Percent inhibition of full-length AR (full length AR mRNA; CSS + DHT medium, 1.34 nM): 65% | Percent inhibition of full-length AR (full length AR mRNA; CSS + DHT medium, 4.0 nM): 85% | Percent inhibition of full-length AR (full length AR mRNA; CSS + DHT medium, 13.4 nM): 93% | Percent inhibition of full-length AR (full length AR mRNA; complete medium, 1.34 nM): 7% | Percent inhibition of full-length AR (full length AR mRNA; complete medium, 4.0 nM): 19% | Percent inhibition of full-length AR (full length AR mRNA; complete medium, 13.4 nM): 49% | Percent inhibition of full-length AR (full length AR mRNA; complete medium, 40 nM): 76%

— patent publication USRE48461E1, “Modulation of androgen receptor expression” (Ionis Pharmaceuticals, Inc., priority 2012, dated 2021)
